Assay results taken from patent publication US8389247B2, “Physiogenomic method for predicting diabetes and metabolic syndromes induced by psychotropic drugs” (priority 2006, dated 2013).

Assays:
[1] = Description: b. Model Building. […] A model was developed for the purpose of predicting a given response (Y) to psychotropic drugs. A linear model for subjects in a group of patients subjected to psychotropic drugs was used in which the response of interest can be expressed as follows:
[formula] where Mi are the dummy marker variables indicating the presence of specified genotypes and Dj are demographic and clinical covariates. The model parameters that are to be estimated from the data are R0, αi and βj. […] S-plus provides very good support for algorithms that provide these estimates for the initial linear regression models, as well other generalized linear models that may be used when the error distribution is not normal. For continuous variables, generalized additive models, including cubic splines in order to appropriately assess the form for the dose-response relationship may also be considered [Hastie T, Tibshirani R. Generalized additive models. Stat. Sci. 1: 297-318 (1986); Durrleman S, Simon R. Flexible regression models with cubic splines. Statistics in Medicine 8:551-561 (1989)].
In addition to optimizing the parameters, model refinement is performed. The first phase of the regression analysis will consist of considering a set of simplified models by eliminating each variable in turn and re-optimizing the likelihood function. The ratio between the two maximum likelihoods of the original vs. the simplified model then provides a significance measure for the contribution of each variable to the model.
Each physiotype in this particular embodiment consists of a selection of markers, and intercept value (C), and a coefficient (ci) for each marker. […] The predicted LDL response for a given individual is then given by the formula:
[formula] where C is the intercept, the ci are the coefficients and the gi are the genotypes, coded 0 for the wild type allele homozygote, 1 for the heterozygote, and 2 for the variant allele homozygote.

[2] = Physiogenomic SNP association screen: single-SNP coefficients for metabolic syndrome outcomes in patients on psychotropic drugs
Description: Various SNPs associated with, for example, the observation of various parameters of metabolic syndromes in patients on psychotropic drugs were screened. The endpoints analyzed were the blood levels of LDL, HDL, and glucose; blood pressure; body mass index; waist circumference; and metabolic syndromes index. The physiogenomic model was developed using the following procedure: 1) Establish a covariate model using only the demographic and clinical variables, 2) Screen for associated genetic markers by testing each SNP against the unexplained residual of the covariate model, and 3) Establish a revised model incorporating the significant associations from the SNP screen. All models are simple linear regression models, but other well-known statistical methods are contemplated to be useful.
In the SNP screen (step 2), the p-values for each SNP were obtained by adding the SNP to the covariate model and comparing the resulting model improvement with up to 10,000 simulated model improvements using the same data set, but with the genotype data randomly permuted to remove any true association. This method produces a p-value that is a direct, unbiased, and model-free estimate of the probability of finding a model as good as the one tested when the null hypothesis of no association is true. All SNPs with a screening p-value of better than 0.003 were selected to be included in the physiogenomic model (step 3).
Data Analysis. Covariates were analyzed using multiple linear regression and the stepwise procedure. An extended linear model was constructed including the significant covariate and the SNP genotype. SNP genotype was coded quantitatively as a numerical variable indicating the number of minor alleles: 0 for major homozygotes, 1 for heterozygotes, and 2 for minor homozygotes. The F-statistic p-value for the SNP variable was used to evaluate the significance of association. The validity of the p-values were tested by performance of an independent calculation of the p-values using permutation testing. To account for the multiple testing of multiple SNPs, adjusted p-values were calculated using Benjamini and Hochbergs false discovery rate (FDR) procedure [Reinere A, Yekutiele D, Benjamini Y: Identifying differentially expressed genes using false discovery rate controlling procedures. Bioinformatics 19:368-375 (2003); Benjamini Y, Hochberg Y: Controlling the false discovery rate: a practical and powerful approach to multiple testing. Journal of the Royal Statistical Society, Series B 57:289-300 (1995); Benjamini Y, Hochberg Y: On the adaptive control of the false discovery rate in multiple testing with independent statistics. Journal of Educational and Behavioral Statistics 25:60-83 (2000)]. In addition, the power for detecting an association based on the Bonferroni multiple comparison adjustment was evaluated. For each SNP, the effect size in standard deviations that was necessary for detection of an association at a power of 80% (20% false negative rate) was calculated using the formula: […]

[3] = Outcome variables of patients on each psychotropic drug broken down by demographic factors (Covariates tables); type: in vivo, human
[4] = cited from earlier work

O=C1CCc2ccc(OCCCCN3CCN(c4cccc(Cl)c4Cl)CC3)cc2N1 [Arapiprazole, arapiprazole]
Intercept (C), Blood Glucose Physiotype [1]: Intercept (C) = 0.3665 | Intercept (C), Body Mass Physiotype [1]: Intercept (C) = 0.1845 | Intercept (C), Diastolic Blood Pressure Physiotype [1]: Intercept (C) = −0.05506 | Intercept (C), HDL Cholesterol Physiotype [1]: Intercept (C) = −0.3706 | Intercept (C), LDL Cholesterol Physiotype [1]: Intercept (C) = 0.2441 | Intercept (C), Log (TG) Physiotype [1]: Intercept (C) = 0.9167 | Intercept (C), Systolic Blood Pressure Physiotype [1]: Intercept (C) = −0.1862 | Intercept (C), Waist circumference Physiotype [1]: Intercept (C) = −0.888 | Coeff. LDL Cholesterol ([2]; SNP rs264 LPL allele AG p 3.00E−03): −26.5842 | Coeff. LDL Cholesterol ([2]; SNP rs7412 APOE allele TC p 1.42E−02): −26.3527 | Coeff. LDL Cholesterol ([2]; SNP rs140700 SLC6A4 allele AG p 1.76E−02): 34.06 | Coeff. LDL Cholesterol ([2]; SNP rs231460 PYY allele TC p 7.02E−03): −22.8702 | Coeff. LDL Cholesterol ([2]; SNP rs701492 GAD1 allele TC p 1.25E−04): −41.2222 | Coeff. LDL Cholesterol ([2]; SNP rs1057910 CYP2C9 allele AC p 9.03E−04): 25.75 | Coeff. LDL Cholesterol ([2]; SNP rs1176744 HTR3B allele TG p 2.77E−02): −14.3889 | Coeff. LDL Cholesterol ([2]; SNP rs1805002 CCKBR allele AG p 3.93E−02): −32.875 | Coeff. LDL Cholesterol ([2]; SNP rs1871143 GYS2 allele TG p 4.09E−02): −14.1588 | Coeff. LDL Cholesterol ([2]; SNP rs2070937 HP allele AG p 3.68E−02): 16.59 | Coeff. LDL Cholesterol ([2]; SNP rs2192752 IL1R1 allele AC p 3.35E−02): 19.88 | Coeff. LDL Cholesterol ([2]; SNP rs2227852 DRD5 allele AG p 1.36E−02): −28.1852 | Coeff. LDL Cholesterol ([2]; SNP rs2229416 ACACA allele AG p 1.41E−02): −29.2143 | Coeff. LDL Cholesterol ([2]; SNP rs2306179 GYS2 allele AG p 2.72E−02): −15.1786 | Coeff. LDL Cholesterol ([2]; SNP rs3760396 CCL2 allele GC p 4.10E−02): −15.8942 | Coeff. LDL Cholesterol ([2]; SNP rs3762611 GABRA4 allele AG p 1.49E−02): −18.7032 | Coeff. LDL Cholesterol ([2]; SNP rs3822222 CCKAR allele TC p 8.57E−03): 24.98 | Coeff. LDL Cholesterol ([2]; SNP rs4795180 ACACA allele TG p 1.41E−02): −29.2143 | Coeff. LDL Cholesterol ([2]; SNP rs5030390 ICAM1 allele AG p 1.30E−02): −27.8333 | Coeff. LDL Cholesterol ([2]; SNP rs7816340 ADRA1A allele TC p 4.36E−02): −25.5911 | Coeff. LDL Cholesterol ([2]; SNP rs9904270 RARA allele TC p 2.39E−03): −37.1182 | Coeff. LDL Cholesterol ([2]; SNP rs10509676 CYP2C19 allele TA p 1.50E−02): −24.25 | LDL ([3]; Age 20-30, N 8): 90.5 | LDL ([3]; Age 30-40, N 16): 97.19 | LDL ([3]; Age 40-50, N 8): 94.25 | LDL ([3]; Age 50-60, N 4): 83 | LDL ([3]; All, N 36): 93.47 | LDL ([3]; Heritage African Am, N 3): 104 | LDL ([3]; Heritage Caucasian, N 33): 92.52 | LDL ([3]; female, N 10): 87 | BM ([3]; human, in vivo): 86.58 | Waist ([3]; human, in vivo): 101.34 | dBP ([3]; human, in vivo): 75.86 | sBP ([3]; human, in vivo): 122.17 | LDL ([3]; male, N 26): 95.96 | LDL ([3]; patients on the named drug): 93.47

CN1CCN(C2=Nc3cc(Cl)ccc3Nc3ccccc32)CC1 [clozapine]
treated patients with induced weight gain, diabetes and other metabolic derangements [4]: 50%
